Data set [1] is described as follows: General method for water solubility test (gradual addition of water to 1 mg peptoid until clear). The data set is classed as physicochemical. As to the method:
1 mg peptoid was placed in an Eppendorf container and water was added gradually (e.g., […] per addition) until a clear solution was obtained. The solubility test was repeated three times and average values are presented. The limit of the test was typically 2.0×10^2 mg/liter (i.e., 1 mg per 5 ml).
Water solubility tests were carried out by a gradual addition of 5 μl distilled water to 1 mg peptoid until a clear solution was obtained. This assay was repeated three times and results were averaged.

Data set [2] can be described thus: Circular dichroism (CD) spectra of peptoids in water (temperature and concentration dependence). Format: physicochemical. The settings on record: for Aggregation in water from concentration dependence of CD spectra: 40 to 180 μM. The protocol:
Circular dichroism (CD) measurements were performed using a J-810-150S circular dichroism spectropolarimeter (Jasco). Spectra were obtained in a 1 mm path-length fused quartz cell. Prior to taking measurements, 5 mM stock oligomer solution was constituted in 100% water. The appropriate dilutions were made immediately before the measurements. Eight scans were taken for each sample at a scan rate of 1 nm/second at 1 nm increments. Data are expressed in terms of per-residue molar ellipticity (degrees*cm^2/dmol) calculated per mole of amide groups present.
(§1) In order to assess whether the dissolved peptoids form aggregates, fluorescence spectra were determined for P18 and P21 (which comprise Ns1npe) dissolved in water. Aggregation of peptoids with Ns1npe groups has been reported to be associated with an excimer band at 392 nm [Fuller et al., Org. Lett. 2013, 15:5118-5121]. In addition, CD spectra of P21 were determined at various concentrations ranging from 40 to 180 μM in water.
Similarly, CD spectra of P2, P5 and P8 (which comprise Nspe rather than Ns1npe as in P18 and P21) were determined in order to assess whether the dissolved peptoids form aggregates in water.

Data set [3] is described as follows: Fluorescence emission spectra in water (excimer band, aggregation). The data set is classed as physicochemical. The settings on record: 40 μM. The protocol:
as §1

The conditions of data set [4]: literature report (Baskin & Maayan 2016); cited from earlier work.
Data set [5] in a line: Selectivity towards Cu^2+ by UV-visible absorption spectra (metal ion mixture vs Cu^2+-complex). Format: binding. The settings on record: water; 1 equivalent peptoid, mixture of Cu^2+, Co^2+, Zn^2+, Fe^2+, Mn^2+ and Ni^2+. As to the method: UV-visible spectrometry measurements were performed using a Cary™ 60 UV-Vis spectrophotometer (Agilent) with Czerny-Turner monochromator. In a typical UV-visible experiment, 10 μl of a peptoid solution (5 mM) was diluted in 3 ml H2O (to obtain a 17 μM concentration) and the UV-visible spectrum was measured. Afterwards 1 equivalent of Cu^2+ (10 μl, 5 mM) or solution containing mixtures of metal ions (1 equivalent Cu^2+, Co^2+, Zn^2+, Mn^2+, Ni^2+ and Fe^3+, 5 mM, 10 μl) was added and the spectrum was measured again.
In order to evaluate the selectivity of P33 and P34 towards Cu^2+, 1 equivalent of each peptoid in water was added to 1 equivalent of a mixture solution containing the metal ions Cu^2+, Co^2+, Zn^2+, Fe^2+, Mn^2+ and Ni^2+, and UV-visible absorption spectra were recorded and compared to UV-visible absorption of Cu^2+-complexes of the peptoids. It has been previously shown that comparing UV-visible absorption spectra is a highly reliable tool to assess the selectivity of the peptoid chelators.

Values after ≈ are worked out from the molar mass of the structure shown. Values joined by “and” are separate entries in the source; they are usually repeats but may differ in a detail not shown here. Equal entries are not always repeated. Where two headings read alike, the source gives them in different places. Starred links: 1 amine or outer side, 2 acyl side, 3 side chain; linkers in the order of their positions; H or OH if unused. Non-standard residues stand in square brackets, D forms with d. Residues, ends and D or L forms follow the SMILES beside them. *: point of attachment. N(CH2CH2O-4'-Tpy)Gly = O=C(O)CNCCOc1cc(-c2ccccn2)nc(-c2ccccn2)c1; Acetyl(2-(piperazin-1-yl)) = O=C(CN1CCNCC1)*; X2 = O=C(CN(Cc1ccc2cccc(O)c2n1)[*:1])[*:2]; Gly(Nα-NHCO2Et) = CCOC(=O)NNCC(=O)O; Nrpe = C[C@@H](NCC(=O)O)c1ccccc1; X4 = O=C(CN1CCCN([*:1])CC1)[*:2]; Nspe = C[C@H](NCC(=O)O)c1ccccc1; X1 = O=C(CN1CCN([*:1])CC1)[*:2]; X5 = NC(=O)CN1CCN(*)CC1; X3 = O=C(CN1CCCNCC1)*

As usually defined, the solubility is the dissolved amount per volume that the medium holds. A lower solubility goes with a poorly soluble substance.

For the compound `C[C@@H](c1ccccc1)N(CC(N)=O)C(=O)CN(C(=O)CN(C(=O)CN(C(=O)CN(C(=O)CN(C(=O)CN1CCNCC1)[C@@H](C)c1ccccc1)[C@@H](C)c1ccccc1)[C@@H](C)c1ccccc1)[C@@H](C)c1ccccc1)[C@@H](C)c1ccccc1` [Peptoid P2, (Nspe)6-Npz] ({Acetyl(2-(piperazin-1-yl))}-[Nspe][Nspe][Nspe][Nspe][Nspe][Nspe]-NH2), the solubility is ~900 µM and 1000 µg/mL in data set [1]; 1.66 mg/mL (≈ 1.49 mM) in data set [1] (pH 4.5); 1.28 mg/mL (≈ 1.15 mM) in data set [1] (pH 7.5); < 0.2 mg/mL in data set [1] (pH 10.5). For the same compound, the “Change of CD spectrum (helical structure) in water with temperature” value in data set [2] (0° C. to 90° C.) is listed as “does not change significantly”. Also, in data set [2], the “Aggregation in water from concentration dependence of CD spectra” value (shortened to “Aggregation in water”) is “no aggregation”.

Consider `C[C@@H](c1ccccc1)N(CC(N)=O)C(=O)CN(C(=O)CN(C(=O)CN(C(=O)CN(C(=O)CN(C(=O)CN1CCN(C(=O)CN2CCNCC2)CC1)[C@@H](C)c1ccccc1)[C@@H](C)c1ccccc1)[C@@H](C)c1ccccc1)[C@@H](C)c1ccccc1)[C@@H](C)c1ccccc1` [Peptoid P5, (Nspe)6-(Npz)2] ({Acetyl(2-(piperazin-1-yl))}-[X1][Nspe][Nspe][Nspe][Nspe][Nspe][Nspe]-NH2), for which, in data set [1], the “Water solubility relative to that of P2” value is reported as “over 50 times” and the solubility was 58 mg/mL (≈ 46.9 mM). Besides, in data set [1] (pH 10.5), the “Water solubility relative to that of P2 at pH 10.5” value is 30 times. In data set [2], the “Aggregation in water” value is “no aggregation”.

`C[C@@H](c1ccccc1)N(CC(N)=O)C(=O)CN(C(=O)CN(C(=O)CN(C(=O)CN(C(=O)CN(C(=O)CN1CCCN(C(=O)CN2CCCNCC2)CC1)[C@@H](C)c1ccccc1)[C@@H](C)c1ccccc1)[C@@H](C)c1ccccc1)[C@@H](C)c1ccccc1)[C@@H](C)c1ccccc1` [Peptoid P8, (Nspe)6-(Nhpz)2] (X3-[X4][Nspe][Nspe][Nspe][Nspe][Nspe][Nspe]-NH2) gave a solubility in data set [1] of 510 mg/mL (≈ 403 mM). The “Aggregation in water” value in data set [2] is “no aggregation”.

As to `C[C@@H](c1cccc2ccccc12)N(CC(N)=O)C(=O)CN(C(=O)CN(C(=O)CN(C(=O)CN1CCN(C(=O)CN2CCNCC2)CC1)[C@@H](C)c1cccc2ccccc12)[C@@H](C)c1cccc2ccccc12)[C@@H](C)c1cccc2ccccc12` [Peptoid P18, (Ns1npe)4-(Npz)2], the solubility in data set [1] is 13.3 mg/mL (≈ 11.9 mM). The “Excimer band near 392 nm (aggregation)” value in data set [3] is “no excimer band was observed”.

Consider `C[C@@H](c1cccc2ccccc12)N(CC(N)=O)C(=O)CN(C(=O)CN(C(=O)CN(C(=O)CN1CCN(C(=O)CN2CCN(C(=O)CN3CCNCC3)CC2)CC1)[C@@H](C)c1cccc2ccccc12)[C@@H](C)c1cccc2ccccc12)[C@@H](C)c1cccc2ccccc12` [Peptoid P21, (Ns1npe)4-(Npz)3], for which the concentration in solution in data set [1] (solubility) was 176 mg/mL (≈ 142 mM). Besides, the “Aggregation in water” value in data set [2] is on record as “some concentration-dependent aggregation”. For the same compound, in data set [3], the “Excimer band near 392 nm (aggregation)” value is listed as “no excimer band was observed”.

As for `CCOC(=O)NN(CC(=O)N(CC(N)=O)[C@H](C)c1ccccc1)C(=O)CN(C(=O)CN(NC(=O)OCC)C(=O)CN(C(=O)CN(NC(=O)OCC)C(=O)CN1CCN(C(=O)CN2CCNCC2)CC1)[C@H](C)c1ccccc1)[C@H](C)c1ccccc1` [Peptoid P30] ({Acetyl(2-(piperazin-1-yl))}-[X1][Gly(Nα-NHCO2Et)][Nrpe][Gly(Nα-NHCO2Et)][Nrpe][Gly(Nα-NHCO2Et)][Nrpe]-NH2), in data set [1], the solubility stood at 177 mg/mL (≈ 149 mM).

Consider `C[C@H](NCC(=O)N(CC(=O)N(CC(=O)N(CC(=O)N(CCOc1cc(-c2ccccn2)nc(-c2ccccn2)c1)CC(=O)N(CC(N)=O)[C@@H](C)c1ccccc1)[C@@H](C)c1ccccc1)[C@@H](C)c1ccccc1)Cc1ccc2cccc(O)c2n1)c1ccccc1` [Peptoid P32, reference compound] (H-[Nspe][X2][Nspe][Nspe][N(CH2CH2O-4'-Tpy)Gly][Nspe]-NH2; N-terminus assumed), for which the solubility in data set [1] is < 0.2 mg/mL. For the same compound, the “Selective chelation of Cu^2+ (reported)” value in data set [4] was “selective peptoid chelator for Cu^2+”.

Consider `C[C@@H](c1ccccc1)N(CC(N)=O)C(=O)CN(CCOc1cc(-c2ccccn2)nc(-c2ccccn2)c1)C(=O)CN(C(=O)CN(C(=O)CN(Cc1ccc2cccc(O)c2n1)C(=O)CN(C(=O)CN1CCNCC1)[C@@H](C)c1ccccc1)[C@@H](C)c1ccccc1)[C@@H](C)c1ccccc1` [Peptoid P33, Nspe-Ntrp-(Nspe)2-Nhq-Nspe-Npz] ({Acetyl(2-(piperazin-1-yl))}-[Nspe][X2][Nspe][Nspe][N(CH2CH2O-4'-Tpy)Gly][Nspe]-NH2; N-terminus assumed), for which the solubility in data set [1] was 244 mg/mL (≈ 183 mM). The “Selective binding to Cu^2+” value in data set [5] is “does not selectively bind to Cu^2+”.

Turning to `C[C@H](NCC(=O)N(CC(=O)N(CC(=O)N(CC(=O)N(CCOc1cc(-c2ccccn2)nc(-c2ccccn2)c1)CC(=O)N(CC(=O)N1CCN(CC(N)=O)CC1)[C@@H](C)c1ccccc1)[C@@H](C)c1ccccc1)[C@@H](C)c1ccccc1)Cc1ccc2cccc(O)c2n1)c1ccccc1` [Peptoid P34, Npz-Nspe-Ntrp-(Nspe)2-Nhq-Nspe] (H-[Nspe][X2][Nspe][Nspe][N(CH2CH2O-4'-Tpy)Gly][Nspe]-X5; N-terminus assumed), in data set [1], the solubility was 8.3 mg/mL (≈ 6.22 mM). Moreover, the “Selective binding to Cu^2+” value in data set [5] was “selectively binds to Cu^2+”.

Values taken from US20200055897A1, “MODIFIED PEPTOIDS” (Technion Research & Development Foundation Limited, priority 2017, published 2020).
